Reference: patent publication US6352988B2, “Indane or dihydroindole derivatives” (H. Lundbeck A/S, priority 1996, dated 2002)

Assays:
[1] = target: T1, dopamine D4 receptors in cloned human dopamine receptor subtype 4.2 membranes (Homo sapiens, UniProt P21917, DEL271-302); assay: 3H-YM-09151-2 binding (affinity for dopamine D4 receptors); conditions: 3H-YM-09151-2, cloned human D4.2 membranes; * means that the test result is preliminary; read-out: D4-bind. IC50
T1 sequence (P21917 with tags, fused parts or gaps DEL271-302): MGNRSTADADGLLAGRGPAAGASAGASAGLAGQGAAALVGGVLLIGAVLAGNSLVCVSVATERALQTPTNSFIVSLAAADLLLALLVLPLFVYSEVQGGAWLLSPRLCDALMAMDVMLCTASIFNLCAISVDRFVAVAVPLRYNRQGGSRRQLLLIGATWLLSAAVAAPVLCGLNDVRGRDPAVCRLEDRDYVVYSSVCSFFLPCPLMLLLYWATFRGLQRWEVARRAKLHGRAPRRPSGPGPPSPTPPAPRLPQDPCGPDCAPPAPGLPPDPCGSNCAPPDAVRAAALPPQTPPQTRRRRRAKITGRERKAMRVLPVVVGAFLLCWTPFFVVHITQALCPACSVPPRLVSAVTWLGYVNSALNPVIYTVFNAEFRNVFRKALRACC
Procedure: By this method the inhibition by drugs of the binding of the dopamine D4 antagonist ^3H-YM-09151-2 to dopamine D4 receptors in cloned human dopamine receptor subtype 4.2 membranes is determined in vitro. Accordingly, this is a test for affinity for dopamine D4 receptors. The test is performed using a preparation of cloned dopamine D4 cell membranes CRM-016®, Dupharma A/S, Denmark, in accordance with the product specifications.

| SMILES | melting point [°C] | IC50 [1] [nM] |
| --- | --- | --- |
| C1=C(c2c[nH]c3ccccc23)CCN(CC2Cc3ccccc3C2)C1 [Compound 11b, 3-[1-(Indan-2-yl)methyl-1,2,3,6-tetrahydropyridin-4-yl]-1H-indole] | 156 to 157 | 3 |
| c1ccc2c(c1)CC(CN1CCC(c3c[nH]c4ccccc34)CC1)C2 [Compound 21b, 3-[1-(indan-2-ylmethyl)piperidin-4-yl]-1H-indole] | 146 to 147 | 2.1 |
| Fc1ccc2[nH]cc(C3=CCN(CCC4CCc5ccccc54)CC3)c2c1 (stereo not drawn) [Compound 8b, 5-Fluoro-3-[1-[2-(indan-1-yl)ethyl]-1,2,3,6-tetrahydropyridin-4-yl]-1H-indole] | 172 to 176 | 2.8 |
